Measured values taken from article PMC11544189 (Acta Pharmaceutica Sinica. B, 2024).

System: σ1 receptor
Test: σ[…] protein/BiP dissociation assay
Format: cell-based

## CSC(=S)NCCNC(=O)CCC(=O)Nc1cccc2ccccc12 [Amylovis-201, Methyl (2-{[4-(1-naphthylamino)-4-oxobutanoyl]amino}ethyl)dithiocarbamate]
  IC50: 362 nM
